Data reported in patent US20130252816A1, “HERBICIDAL COMPOSITION AND USE THEREOF” (Syngenta Crop Protection LLC, priority 2010, published 2013).

What follows are substances tested on Poa annua (assay: Example 2: alcohol ethoxylate adjuvants without glyphosate, visual % damage, tracksprayer 300 l/ha). Conditions: adjuvant 1% w/v.
Assay type: in vivo
Text: (§1) The effect of different types of alcohol ethoxylate (branched—Genapol X-series, and unbranched—Genapol O-series, differing degrees of ethoxylation, see Table 3 below for more details), on unwanted vegetation (broadleaf weed and grass species), in the absence of glyphosate, was investigated and compared to untreated (water only) control weeds.
(§2) Troughs (measuring 16 cm by 13 cm by 5 cm) were filled with local field soil. Seeds of Veronica persica, Stellaria media, Trifolium repens and Poa annua were sown 24 days before application of test samples. Plants were grown in the glasshouse at 18 to 20° C. and 60% relative humidity. Application of alcohol ethoxylate test samples was carried out using a tracksprayer, spraying at a rate of 300 l/ha. Plants were kept in glasshouse and visual assessment of the estimated percentage damage to the plant was carried out 1, 7, and 14 days from application.
(§3) Damage was assessed as wilting, desiccation or any other kind of visual injury in comparison to the untreated control (water only).

Substance	mean % damage 1 daa Poa annua	mean % damage 7 daa Poa annua	mean % damage 14 daa Poa annua
Oleyl alcohol polyglycol ether with 2 moles of ethoxylation [GenapolO020]	0%	0%	0%
Oleyl alcohol polyglycol ether with 8 moles of ethoxylation [GenapolO080]	0%	5%	0%
Iso-tridecyl alcohol polyglycol ether with 2 moles of ethoxylation [GenapolX020]	0%	0%	0%

Same assay, conditions: adjuvant 1.5% w/v

Substance	mean % damage 1 daa Poa annua	mean % damage 7 daa Poa annua	mean % damage 14 daa Poa annua
Oleyl alcohol polyglycol ether with 2 moles of ethoxylation [GenapolO020]	0%	0%	0%
Oleyl alcohol polyglycol ether with 8 moles of ethoxylation [GenapolO080]	0%	5%	0%
Iso-tridecyl alcohol polyglycol ether with 2 moles of ethoxylation [GenapolX020]	0%	5%	0%

Same assay, conditions: adjuvant 2% w/v

Substance	mean % damage 1 daa Poa annua	mean % damage 7 daa Poa annua	mean % damage 14 daa Poa annua
Oleyl alcohol polyglycol ether with 2 moles of ethoxylation [GenapolO020]	0%	0%	0%
Oleyl alcohol polyglycol ether with 8 moles of ethoxylation [GenapolO080]	0%	5%	0%
Iso-tridecyl alcohol polyglycol ether with 2 moles of ethoxylation [GenapolX020]	0%	5%	0%

Same assay, conditions: adjuvant 2.5% w/v

Substance	mean % damage 1 daa Poa annua	mean % damage 7 daa Poa annua	mean % damage 14 daa Poa annua
Oleyl alcohol polyglycol ether with 2 moles of ethoxylation [GenapolO020]	0%	0%	0%
Oleyl alcohol polyglycol ether with 8 moles of ethoxylation [GenapolO080]	0%	5%	0%
Iso-tridecyl alcohol polyglycol ether with 2 moles of ethoxylation [GenapolX020]	0%	5%	0%

Each substance was assayed on Stellaria media in the same assay as above. Conditions: adjuvant 1% w/v.
Assay type: in vivo
Text: as §1, §2, §3

Substance	mean % damage 1 daa Stellaria media	mean % damage 7 daa Stellaria media	mean % damage 14 daa Stellaria media
Oleyl alcohol polyglycol ether with 2 moles of ethoxylation [GenapolO020]	0%	0%	0%
Oleyl alcohol polyglycol ether with 8 moles of ethoxylation [GenapolO080]	0%	0%	0%
Iso-tridecyl alcohol polyglycol ether with 2 moles of ethoxylation [GenapolX020]	0%	0%	0%

Same assay, conditions: adjuvant 1.5% w/v

Substance	mean % damage 1 daa Stellaria media	mean % damage 7 daa Stellaria media	mean % damage 14 daa Stellaria media
Oleyl alcohol polyglycol ether with 2 moles of ethoxylation [GenapolO020]	0%	0%	0%
Oleyl alcohol polyglycol ether with 8 moles of ethoxylation [GenapolO080]	0%	0%	5%
Iso-tridecyl alcohol polyglycol ether with 2 moles of ethoxylation [GenapolX020]	0%	0%	0%

Same assay, conditions: adjuvant 2% w/v

Substance	mean % damage 1 daa Stellaria media	mean % damage 7 daa Stellaria media	mean % damage 14 daa Stellaria media
Oleyl alcohol polyglycol ether with 2 moles of ethoxylation [GenapolO020]	0%	0%	0%
Oleyl alcohol polyglycol ether with 8 moles of ethoxylation [GenapolO080]	0%	5%	0%
Iso-tridecyl alcohol polyglycol ether with 2 moles of ethoxylation [GenapolX020]	0%	5%	5%

Same assay, conditions: adjuvant 2.5% w/v

Substance	mean % damage 1 daa Stellaria media	mean % damage 7 daa Stellaria media	mean % damage 14 daa Stellaria media
Oleyl alcohol polyglycol ether with 2 moles of ethoxylation [GenapolO020]	0%	5%	0%
Oleyl alcohol polyglycol ether with 8 moles of ethoxylation [GenapolO080]	0%	0%	10%
Iso-tridecyl alcohol polyglycol ether with 2 moles of ethoxylation [GenapolX020]	0%	5%	0%

These substances were tested on Trifolium repens in the same assay as above. Conditions: adjuvant 1% w/v.
Assay type: in vivo
Text: as §1, §2, §3

Substance	mean % damage 1 daa Trifolium repens	mean % damage 7 daa Trifolium repens	mean % damage 14 daa Trifolium repens
Oleyl alcohol polyglycol ether with 2 moles of ethoxylation [GenapolO020]	0%	0%	0%
Oleyl alcohol polyglycol ether with 8 moles of ethoxylation [GenapolO080]	0%	0%	0%
Iso-tridecyl alcohol polyglycol ether with 2 moles of ethoxylation [GenapolX020]	0%	0%	0%

Same assay, conditions: adjuvant 1.5% w/v

Substance	mean % damage 1 daa Trifolium repens	mean % damage 7 daa Trifolium repens	mean % damage 14 daa Trifolium repens
Oleyl alcohol polyglycol ether with 2 moles of ethoxylation [GenapolO020]	0%	0%	0%
Oleyl alcohol polyglycol ether with 8 moles of ethoxylation [GenapolO080]	0%	0%	0%
Iso-tridecyl alcohol polyglycol ether with 2 moles of ethoxylation [GenapolX020]	5%	5%	0%

Same assay, conditions: adjuvant 2% w/v

Substance	mean % damage 1 daa Trifolium repens	mean % damage 7 daa Trifolium repens	mean % damage 14 daa Trifolium repens
Oleyl alcohol polyglycol ether with 2 moles of ethoxylation [GenapolO020]	0%	0%	0%
Oleyl alcohol polyglycol ether with 8 moles of ethoxylation [GenapolO080]	5%	0%	0%
Iso-tridecyl alcohol polyglycol ether with 2 moles of ethoxylation [GenapolX020]	10%	5%	0%

Same assay, conditions: adjuvant 2.5% w/v

Substance	mean % damage 1 daa Trifolium repens	mean % damage 7 daa Trifolium repens	mean % damage 14 daa Trifolium repens
Oleyl alcohol polyglycol ether with 2 moles of ethoxylation [GenapolO020]	0%	10%	0%
Oleyl alcohol polyglycol ether with 8 moles of ethoxylation [GenapolO080]	5%	10%	10%
Iso-tridecyl alcohol polyglycol ether with 2 moles of ethoxylation [GenapolX020]	10%	5%	10%

What follows are substances tested on Veronica persica in the same assay as above. Conditions: adjuvant 1% w/v.
Assay type: in vivo
Text: as §1, §2, §3

Substance	mean % damage 1 daa Veronica persica	mean % damage 7 daa Veronica persica	mean % damage 14 daa Veronica persica
Oleyl alcohol polyglycol ether with 2 moles of ethoxylation [GenapolO020]	0%	0%	0%
Oleyl alcohol polyglycol ether with 8 moles of ethoxylation [GenapolO080]	0%	5%	10%
Iso-tridecyl alcohol polyglycol ether with 2 moles of ethoxylation [GenapolX020]	0%	0%	0%

Same assay, conditions: adjuvant 1.5% w/v

Substance	mean % damage 1 daa Veronica persica	mean % damage 7 daa Veronica persica	mean % damage 14 daa Veronica persica
Oleyl alcohol polyglycol ether with 2 moles of ethoxylation [GenapolO020]	0%	0%	0%
Oleyl alcohol polyglycol ether with 8 moles of ethoxylation [GenapolO080]	0%	0%	10%
Iso-tridecyl alcohol polyglycol ether with 2 moles of ethoxylation [GenapolX020]	0%	0%	0%

Same assay, conditions: adjuvant 2% w/v

Substance	mean % damage 1 daa Veronica persica	mean % damage 7 daa Veronica persica	mean % damage 14 daa Veronica persica
Oleyl alcohol polyglycol ether with 2 moles of ethoxylation [GenapolO020]	0%	0%	0%
Oleyl alcohol polyglycol ether with 8 moles of ethoxylation [GenapolO080]	0%	0%	0%
Iso-tridecyl alcohol polyglycol ether with 2 moles of ethoxylation [GenapolX020]	5%	5%	5%

Same assay, conditions: adjuvant 2.5% w/v

Substance	mean % damage 1 daa Veronica persica	mean % damage 7 daa Veronica persica	mean % damage 14 daa Veronica persica
Oleyl alcohol polyglycol ether with 2 moles of ethoxylation [GenapolO020]	0%	0%	0%
Oleyl alcohol polyglycol ether with 8 moles of ethoxylation [GenapolO080]	0%	5%	0%
Iso-tridecyl alcohol polyglycol ether with 2 moles of ethoxylation [GenapolX020]	5%	5%	5%
